In article PMC5564600 (Oncotarget, 2017) one finds remaining activity data, which are given here for 4 compounds.

Experiment in all cases: biochemical
What all share (type): binding

The target in experiment [1] is T1, panel of 442 kinases (Homo sapiens, UniProt P08581, M1250T).
T1 construct: purchased Ambit Biosciences (scanMAXX KINOMEscan)
To be noted: kinase MET(M1250T); for remaining activity at 1 µM: read-out: % of control at 1 µM.

Experiment [2] addresses T2, panel of 442 kinases (Homo sapiens, UniProt Q00535).
T2 construct: purchased Ambit Biosciences (scanMAXX KINOMEscan)
As to conditions: CDK5; for remaining activity at 1 µM: read-out: % of control at 1 µM.

Experiment [3] deals with T3, panel of 442 kinases (Homo sapiens, UniProt P54753).
T3 construct: purchased Ambit Biosciences (scanMAXX KINOMEscan)
T3 sequence (P54753 34-998): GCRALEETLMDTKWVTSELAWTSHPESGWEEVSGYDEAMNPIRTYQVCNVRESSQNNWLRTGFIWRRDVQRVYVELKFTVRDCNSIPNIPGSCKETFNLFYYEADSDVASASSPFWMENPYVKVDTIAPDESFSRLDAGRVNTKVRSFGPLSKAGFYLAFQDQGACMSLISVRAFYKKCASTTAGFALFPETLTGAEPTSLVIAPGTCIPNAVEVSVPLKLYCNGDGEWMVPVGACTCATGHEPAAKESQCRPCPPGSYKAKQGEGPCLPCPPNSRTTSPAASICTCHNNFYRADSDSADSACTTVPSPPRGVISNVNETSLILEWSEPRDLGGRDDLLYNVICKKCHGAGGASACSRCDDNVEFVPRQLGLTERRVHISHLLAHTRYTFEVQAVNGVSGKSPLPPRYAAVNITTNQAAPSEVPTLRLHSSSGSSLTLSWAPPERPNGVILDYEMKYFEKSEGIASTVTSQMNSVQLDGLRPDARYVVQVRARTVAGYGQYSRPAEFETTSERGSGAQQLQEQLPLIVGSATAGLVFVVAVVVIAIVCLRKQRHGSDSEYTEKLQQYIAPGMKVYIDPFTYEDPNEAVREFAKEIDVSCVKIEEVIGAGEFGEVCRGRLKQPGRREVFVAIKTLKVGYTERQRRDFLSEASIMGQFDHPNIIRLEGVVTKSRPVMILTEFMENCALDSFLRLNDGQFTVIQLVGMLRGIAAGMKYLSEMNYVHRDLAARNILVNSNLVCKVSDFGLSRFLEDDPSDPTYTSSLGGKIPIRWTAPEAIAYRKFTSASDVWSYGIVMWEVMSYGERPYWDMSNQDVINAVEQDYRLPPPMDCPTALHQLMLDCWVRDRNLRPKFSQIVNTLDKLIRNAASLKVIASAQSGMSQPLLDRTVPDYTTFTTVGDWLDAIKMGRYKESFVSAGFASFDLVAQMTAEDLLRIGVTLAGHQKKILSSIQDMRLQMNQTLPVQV
As to conditions: EPHB3; for remaining activity at 1 µM: read-out: % of control at 1 µM.

Experiment [4] addresses T4, panel of 442 kinases (Homo sapiens, UniProt P52564).
T4 construct: purchased Ambit Biosciences (scanMAXX KINOMEscan)
T4 sequence (P52564 1-334): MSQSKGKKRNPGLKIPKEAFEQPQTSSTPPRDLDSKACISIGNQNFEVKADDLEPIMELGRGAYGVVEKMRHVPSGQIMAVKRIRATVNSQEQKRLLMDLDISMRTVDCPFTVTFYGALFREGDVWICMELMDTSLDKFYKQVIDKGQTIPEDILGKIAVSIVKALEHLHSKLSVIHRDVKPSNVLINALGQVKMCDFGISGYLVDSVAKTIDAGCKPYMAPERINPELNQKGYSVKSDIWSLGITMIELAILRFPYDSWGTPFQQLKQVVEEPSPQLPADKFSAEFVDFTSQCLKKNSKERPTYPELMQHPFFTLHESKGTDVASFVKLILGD
As to conditions: kinase MEK6; for remaining activity at 1 µM: read-out: % of control at 1 µM.

Experiment [5] has as its target T5, panel of 442 kinases (Homo sapiens, UniProt Q9C098).
T5 construct: purchased Ambit Biosciences (scanMAXX KINOMEscan)
To be noted: DCAMKL3; for remaining activity at 1 µM: read-out: % of control at 1 µM.

Experiment [6] has as its target T6, panel of 442 kinases (Homo sapiens, UniProt P07949, V804L).
T6 construct: purchased Ambit Biosciences (scanMAXX KINOMEscan)
As to conditions: kinase RET(V804L); for remaining activity at 1 µM: read-out: RET(V804L) (% of control at 1 µM).

Experiment [7] deals with T7, panel of 442 kinases (Homo sapiens, UniProt P35968).
T7 construct: purchased Ambit Biosciences (scanMAXX KINOMEscan)
To be noted: kinase VEGFR2; for remaining activity at 1 µM: read-out: VEGFR2 (% of control at 1 µM).

Experiment [8] has as its target T8, panel of 442 kinases (Homo sapiens, UniProt Q06187).
T8 construct: purchased Ambit Biosciences (scanMAXX KINOMEscan)
As to conditions: BTK; for remaining activity at 1 µM: read-out: % of control at 1 µM.

Experiment [9] deals with T9, panel of 442 kinases (Homo sapiens, UniProt Q9H2X6).
T9 construct: purchased Ambit Biosciences (scanMAXX KINOMEscan)
T9 sequence (Q9H2X6 whole entry): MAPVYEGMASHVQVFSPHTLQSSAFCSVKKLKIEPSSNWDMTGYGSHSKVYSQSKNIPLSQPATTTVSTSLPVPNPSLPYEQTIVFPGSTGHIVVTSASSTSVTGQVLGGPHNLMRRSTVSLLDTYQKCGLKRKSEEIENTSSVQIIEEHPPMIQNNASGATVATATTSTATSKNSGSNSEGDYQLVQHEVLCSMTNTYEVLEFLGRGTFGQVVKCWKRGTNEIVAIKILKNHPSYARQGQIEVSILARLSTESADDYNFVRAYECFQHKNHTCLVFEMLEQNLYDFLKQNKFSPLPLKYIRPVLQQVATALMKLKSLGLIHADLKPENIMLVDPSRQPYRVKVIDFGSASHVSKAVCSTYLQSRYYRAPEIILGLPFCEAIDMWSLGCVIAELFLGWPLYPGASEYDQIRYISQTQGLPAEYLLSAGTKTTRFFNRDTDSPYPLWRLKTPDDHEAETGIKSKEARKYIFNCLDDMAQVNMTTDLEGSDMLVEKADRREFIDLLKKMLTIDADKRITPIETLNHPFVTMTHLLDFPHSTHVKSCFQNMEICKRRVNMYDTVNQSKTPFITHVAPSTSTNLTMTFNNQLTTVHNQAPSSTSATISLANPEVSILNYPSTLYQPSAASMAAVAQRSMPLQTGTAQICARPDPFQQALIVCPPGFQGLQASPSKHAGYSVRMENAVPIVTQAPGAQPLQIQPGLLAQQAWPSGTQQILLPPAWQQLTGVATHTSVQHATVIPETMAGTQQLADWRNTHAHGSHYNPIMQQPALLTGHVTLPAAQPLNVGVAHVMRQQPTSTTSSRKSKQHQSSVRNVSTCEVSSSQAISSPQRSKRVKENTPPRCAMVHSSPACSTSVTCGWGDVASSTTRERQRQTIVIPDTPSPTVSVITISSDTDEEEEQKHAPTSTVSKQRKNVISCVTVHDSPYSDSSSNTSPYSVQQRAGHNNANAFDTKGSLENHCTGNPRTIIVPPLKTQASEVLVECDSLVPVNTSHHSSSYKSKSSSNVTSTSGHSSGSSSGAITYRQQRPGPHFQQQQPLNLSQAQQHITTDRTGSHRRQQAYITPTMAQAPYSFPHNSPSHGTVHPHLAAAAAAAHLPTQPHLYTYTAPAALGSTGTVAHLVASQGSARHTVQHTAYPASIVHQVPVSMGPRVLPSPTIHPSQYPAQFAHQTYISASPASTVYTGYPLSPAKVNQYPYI
To be noted: kinase HIPK2; for remaining activity at 1 µM: read-out: % of control at 1 µM.

Experiment [10] deals with T10, panel of 442 kinases (Homo sapiens, UniProt Q15759).
T10 construct: purchased Ambit Biosciences (scanMAXX KINOMEscan)
T10 sequence (Q15759 whole entry): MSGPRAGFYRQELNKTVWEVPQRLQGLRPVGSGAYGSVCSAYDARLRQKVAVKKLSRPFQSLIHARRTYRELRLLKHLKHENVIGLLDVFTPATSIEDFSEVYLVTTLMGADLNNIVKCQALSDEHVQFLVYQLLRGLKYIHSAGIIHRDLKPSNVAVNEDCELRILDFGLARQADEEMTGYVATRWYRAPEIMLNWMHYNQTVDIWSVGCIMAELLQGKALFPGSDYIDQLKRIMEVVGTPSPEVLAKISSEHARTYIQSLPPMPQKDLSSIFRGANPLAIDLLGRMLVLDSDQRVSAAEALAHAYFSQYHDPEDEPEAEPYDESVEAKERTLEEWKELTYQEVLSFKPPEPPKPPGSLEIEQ
To be noted: kinase p38-beta; for remaining activity at 1 µM: read-out: % of control at 1 µM.

For experiment [11], the target named is T11, panel of 442 kinases (Homo sapiens, UniProt Q8IWQ3).
T11 construct: purchased Ambit Biosciences (scanMAXX KINOMEscan)
T11 sequence (Q8IWQ3 1-736): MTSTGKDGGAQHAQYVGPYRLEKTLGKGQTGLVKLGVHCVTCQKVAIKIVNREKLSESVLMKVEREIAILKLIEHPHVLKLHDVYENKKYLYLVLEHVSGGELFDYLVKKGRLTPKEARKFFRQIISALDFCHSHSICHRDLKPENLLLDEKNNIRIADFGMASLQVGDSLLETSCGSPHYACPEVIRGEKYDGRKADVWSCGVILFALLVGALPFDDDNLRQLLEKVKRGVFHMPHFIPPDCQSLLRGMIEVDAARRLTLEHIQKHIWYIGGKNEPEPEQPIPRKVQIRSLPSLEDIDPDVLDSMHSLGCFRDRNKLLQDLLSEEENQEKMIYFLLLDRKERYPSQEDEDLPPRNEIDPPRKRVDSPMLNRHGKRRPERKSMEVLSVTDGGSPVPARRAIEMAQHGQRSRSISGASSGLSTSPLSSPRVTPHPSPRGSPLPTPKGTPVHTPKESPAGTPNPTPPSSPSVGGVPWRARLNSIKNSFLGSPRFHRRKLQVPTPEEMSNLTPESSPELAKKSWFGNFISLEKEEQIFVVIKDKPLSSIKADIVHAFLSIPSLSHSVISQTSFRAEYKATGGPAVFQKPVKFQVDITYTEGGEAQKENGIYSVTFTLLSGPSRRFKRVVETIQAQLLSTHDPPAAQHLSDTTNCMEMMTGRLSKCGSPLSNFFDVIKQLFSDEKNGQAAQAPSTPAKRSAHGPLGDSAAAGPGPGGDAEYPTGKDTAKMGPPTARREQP
As to conditions: BRSK2; for remaining activity at 1 µM: read-out: % of control at 1 µM.

[12] abbreviates: 10 µM, read-out: % of control at 10 µM.

T5 sequence (Q9C098 whole entry): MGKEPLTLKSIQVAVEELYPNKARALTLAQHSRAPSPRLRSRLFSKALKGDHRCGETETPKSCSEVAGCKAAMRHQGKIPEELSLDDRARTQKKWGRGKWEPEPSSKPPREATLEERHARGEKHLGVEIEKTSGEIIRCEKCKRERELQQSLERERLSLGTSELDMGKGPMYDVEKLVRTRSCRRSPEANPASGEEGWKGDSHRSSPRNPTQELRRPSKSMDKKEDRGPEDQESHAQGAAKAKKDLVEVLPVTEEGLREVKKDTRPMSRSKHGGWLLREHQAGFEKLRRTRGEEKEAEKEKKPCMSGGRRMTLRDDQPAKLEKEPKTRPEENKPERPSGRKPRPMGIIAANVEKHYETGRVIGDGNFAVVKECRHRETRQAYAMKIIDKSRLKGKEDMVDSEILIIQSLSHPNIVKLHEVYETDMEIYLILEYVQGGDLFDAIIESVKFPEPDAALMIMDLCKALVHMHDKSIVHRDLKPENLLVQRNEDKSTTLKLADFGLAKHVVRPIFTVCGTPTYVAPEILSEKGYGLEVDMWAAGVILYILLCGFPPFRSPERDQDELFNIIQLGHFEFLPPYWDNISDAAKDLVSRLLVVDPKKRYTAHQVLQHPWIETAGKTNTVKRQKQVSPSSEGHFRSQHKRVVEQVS
T1 sequence (P08581 25-1390 M1250T): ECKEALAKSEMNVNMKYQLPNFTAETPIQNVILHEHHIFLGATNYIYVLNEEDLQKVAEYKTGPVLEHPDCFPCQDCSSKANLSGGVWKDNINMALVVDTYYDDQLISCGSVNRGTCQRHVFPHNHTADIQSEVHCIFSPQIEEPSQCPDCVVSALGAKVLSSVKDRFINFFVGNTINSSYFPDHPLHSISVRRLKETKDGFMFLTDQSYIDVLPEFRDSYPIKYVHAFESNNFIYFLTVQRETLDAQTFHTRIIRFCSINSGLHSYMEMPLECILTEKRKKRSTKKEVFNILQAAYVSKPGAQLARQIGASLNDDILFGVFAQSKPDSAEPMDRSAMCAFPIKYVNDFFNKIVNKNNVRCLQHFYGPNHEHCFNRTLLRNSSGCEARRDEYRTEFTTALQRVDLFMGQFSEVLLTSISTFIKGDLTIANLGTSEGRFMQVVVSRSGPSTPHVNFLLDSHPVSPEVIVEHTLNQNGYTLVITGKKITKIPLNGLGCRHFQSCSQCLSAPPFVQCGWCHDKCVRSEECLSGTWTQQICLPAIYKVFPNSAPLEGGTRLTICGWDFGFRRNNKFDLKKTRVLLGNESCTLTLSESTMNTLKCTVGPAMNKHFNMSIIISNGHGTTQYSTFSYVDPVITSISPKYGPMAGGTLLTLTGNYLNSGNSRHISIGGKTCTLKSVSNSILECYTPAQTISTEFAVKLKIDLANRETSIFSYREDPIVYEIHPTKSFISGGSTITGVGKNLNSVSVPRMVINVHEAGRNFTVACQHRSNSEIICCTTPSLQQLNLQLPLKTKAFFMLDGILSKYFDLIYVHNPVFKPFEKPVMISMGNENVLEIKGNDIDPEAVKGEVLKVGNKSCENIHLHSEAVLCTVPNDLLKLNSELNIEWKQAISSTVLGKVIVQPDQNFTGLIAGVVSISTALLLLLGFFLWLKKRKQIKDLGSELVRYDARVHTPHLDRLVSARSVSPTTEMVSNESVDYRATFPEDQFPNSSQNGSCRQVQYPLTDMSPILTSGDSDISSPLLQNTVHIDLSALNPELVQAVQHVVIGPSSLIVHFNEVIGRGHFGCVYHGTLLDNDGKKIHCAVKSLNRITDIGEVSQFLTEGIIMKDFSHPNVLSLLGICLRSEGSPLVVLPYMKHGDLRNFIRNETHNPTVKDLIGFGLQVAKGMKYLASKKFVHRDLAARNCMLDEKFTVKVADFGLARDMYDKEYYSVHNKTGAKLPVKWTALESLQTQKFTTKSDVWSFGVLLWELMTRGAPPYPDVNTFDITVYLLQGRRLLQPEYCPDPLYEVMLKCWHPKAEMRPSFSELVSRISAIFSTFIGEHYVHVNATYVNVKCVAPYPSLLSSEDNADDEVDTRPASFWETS
T8 sequence (Q06187 whole entry): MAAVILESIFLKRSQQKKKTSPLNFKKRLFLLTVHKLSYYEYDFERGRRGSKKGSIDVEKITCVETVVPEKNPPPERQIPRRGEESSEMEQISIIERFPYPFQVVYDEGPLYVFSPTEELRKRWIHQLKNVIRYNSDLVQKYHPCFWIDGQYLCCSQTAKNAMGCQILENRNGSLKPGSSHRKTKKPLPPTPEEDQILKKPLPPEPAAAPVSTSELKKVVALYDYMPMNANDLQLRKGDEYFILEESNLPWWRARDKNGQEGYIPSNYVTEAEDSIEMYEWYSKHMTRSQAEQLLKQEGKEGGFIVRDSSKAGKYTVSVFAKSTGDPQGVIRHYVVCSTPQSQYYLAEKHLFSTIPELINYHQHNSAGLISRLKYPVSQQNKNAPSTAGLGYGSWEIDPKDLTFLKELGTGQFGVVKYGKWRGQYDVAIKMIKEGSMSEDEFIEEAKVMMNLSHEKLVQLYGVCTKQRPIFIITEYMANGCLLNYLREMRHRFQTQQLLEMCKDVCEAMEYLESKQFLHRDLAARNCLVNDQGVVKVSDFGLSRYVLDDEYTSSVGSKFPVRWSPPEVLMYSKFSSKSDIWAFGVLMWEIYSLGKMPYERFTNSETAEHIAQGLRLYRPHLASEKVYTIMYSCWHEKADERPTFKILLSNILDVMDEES
T2 sequence (Q00535 whole entry): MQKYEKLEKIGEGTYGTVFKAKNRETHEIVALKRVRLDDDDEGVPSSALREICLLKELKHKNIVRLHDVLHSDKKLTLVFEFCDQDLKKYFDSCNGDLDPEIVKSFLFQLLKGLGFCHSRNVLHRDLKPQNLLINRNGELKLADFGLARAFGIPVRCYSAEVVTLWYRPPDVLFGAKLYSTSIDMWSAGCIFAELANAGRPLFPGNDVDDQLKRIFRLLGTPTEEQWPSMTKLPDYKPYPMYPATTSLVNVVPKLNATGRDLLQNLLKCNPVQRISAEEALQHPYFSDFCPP

For `Nc1cc(C(F)(F)F)c(-c2cc(N3CCOCC3)nc(N3CCOCC3)n2)cn1` [Buparlisib], the remaining activity at 1 µM at panel of 442 kinases [1] stood at 92%; at panel of 442 kinases [2], 100%; at panel of 442 kinases [3], 91%; at panel of 442 kinases [4], 90%; at panel of 442 kinases [5], 100%; on panel of 442 kinases [6] it was 100%. Besides, the remaining activity at 1 µM at panel of 442 kinases [7] stood at 87%; on panel of 442 kinases [8] it was 71%; on panel of 442 kinases [9] it was 100%; on panel of 442 kinases [10], 99%; at panel of 442 kinases [11], 100%. For the same compound, the remaining activity at 10 µM on panel of 442 kinases [1] (setting [12]) stood at 100%; on panel of 442 kinases [2] (setting [12]) it was 99%; on panel of 442 kinases [3] (setting [12]) it was 100%; on panel of 442 kinases [4] (setting [12]), 85%; on panel of 442 kinases [5] (setting [12]), 100%; at panel of 442 kinases [6] (10 µM, read-out: RET(V804L) (% of control at 10 µM)), 100%. The remaining activity at 10 µM was found to be 100% at panel of 442 kinases [7] (10 µM, read-out: VEGFR2 (% of control at 10 µM)); 89% at panel of 442 kinases [8] (setting [12]); 100% on panel of 442 kinases [9] (setting [12]); 91% on panel of 442 kinases [10] (setting [12]); 100% on panel of 442 kinases [11] (setting [12]).

On to `Cn1c(=O)n(-c2ccc(C(C)(C)C#N)cc2)c2c3cc(-c4cnc5ccccc5c4)ccc3ncc21` [Dactolisib, 2-methyl-2-[4-(3-methyl-2-oxo-8-quinolin-3-yl-2,3-dihydroimidazo[4,5-c]quinolin-1-yl)-phenyl] propionitrile], for which the remaining activity at 1 µM at panel of 442 kinases [2] was 100%; at panel of 442 kinases [3], 70%; on panel of 442 kinases [4], 96%; on panel of 442 kinases [5] it was 100%; on panel of 442 kinases [6], 99%; at panel of 442 kinases [7], 100%. In addition, the remaining activity at 1 µM at panel of 442 kinases [9] came out at 64%; at panel of 442 kinases [10] it was 99%; at panel of 442 kinases [11], 91%.

As to `COc1ncc(-c2ccc3nccc(-c4ccnnc4)c3c2)cc1NS(=O)(=O)c1ccc(F)cc1F` [Omipalisib], the remaining activity at 1 µM on panel of 442 kinases [1] is 80%; at panel of 442 kinases [2] it was 100%; on panel of 442 kinases [3], 100%; on panel of 442 kinases [4] it was 51%; on panel of 442 kinases [5], 100%; on panel of 442 kinases [6], 99%. Also, the remaining activity at 1 µM on panel of 442 kinases [7] worked out at 78%; on panel of 442 kinases [8] it was 100%; at panel of 442 kinases [9] it was 91%; at panel of 442 kinases [10] it was 100%; at panel of 442 kinases [11] it was 95%.

`FC(F)c1nc2ccccc2n1-c1nc(N2CCOCC2)nc(N2CCOCC2)n1` [ZSTK474, 2-(difluoromethyl)-1-[4,6-di(4-morpholinyl)-1,3,5-triazin-2-yl]-1H-benzimidazole]: the remaining activity at 1 µM at panel of 442 kinases [1] is 99%; at panel of 442 kinases [2], 100%; on panel of 442 kinases [3], 56%; at panel of 442 kinases [4] it was 97%; at panel of 442 kinases [5], 100%; at panel of 442 kinases [6] it was 93%. In addition, the remaining activity at 1 µM amounted to 100% at panel of 442 kinases [7]; 100% at panel of 442 kinases [8]; 86% on panel of 442 kinases [9]; 70% on panel of 442 kinases [10]; 100% at panel of 442 kinases [11].
